Like-named read-outs stand apart in the source and are kept apart here.
Legend:
[1] = molecular target: recombinant RORγ Ligand Binding Domain (LBD) protein (Homo sapiens (Human), UniProt P51449); test: Radio-Ligand RORγ Binding Assay (Assay 1); details: competition with 25-hydroxy [26,27-3H]-cholesterol, SPA, read-out: RORγ Binding Ki Range*
Procedure, shortened: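 Scintillation proximity competition binding of 8.6 nM stock 25-hydroxy[26,27-3H]cholesterol to 24 nM stock 6×His-GST-tagged human RORγ LBD, in 50 mM HEPES pH 7.4 with NaCl, MgCl2, glycerol, CHAPS, β-octylglucopyranoside and DTT, room temperature. Inhibition referenced to DMSO and 10 μM T0901317; IC50 by four-parameter fit, converted to Ki using radioligand concentration and KD.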

[2] = molecular target: full-length RORγt in Jurkat cells (Homo sapiens (Human), UniProt P51449); test: RORγt 5xRORE Assay in Jurkat Cells (Assay 2); type: cell-based; details: Nanoluc luciferase reporter, 16-18 hrs
Procedure, shortened: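 Jurkat cells co-transfected with full-length RORγt expression plasmid and a 5×RORE-driven secreted Nanoluc reporter, then plated at 80,000 cells/well in phenol-red-free RPMI with 10% delipidated FBS. Compounds added at 0.1% DMSO for 16–18 h at 37 °C; supernatant luciferase read for inverse agonism.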

[3] = Table 8, read-out: RORγt5X IC50 Range*
[4] = Table 9, read-out: RORγt5X IC50 Range*

recombinant RORγ Ligand Binding Domain (LBD) protein, sequence (P51449 269-508): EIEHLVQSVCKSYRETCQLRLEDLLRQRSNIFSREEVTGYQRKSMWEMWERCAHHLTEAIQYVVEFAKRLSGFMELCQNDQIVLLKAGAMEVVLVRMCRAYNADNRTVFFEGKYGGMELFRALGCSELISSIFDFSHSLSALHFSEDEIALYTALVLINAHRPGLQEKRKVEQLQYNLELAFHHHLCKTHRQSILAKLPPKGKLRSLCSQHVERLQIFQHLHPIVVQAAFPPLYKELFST
full-length RORγt in Jurkat cells, sequence (P51449 other isoform, or with tags, fused parts or gaps): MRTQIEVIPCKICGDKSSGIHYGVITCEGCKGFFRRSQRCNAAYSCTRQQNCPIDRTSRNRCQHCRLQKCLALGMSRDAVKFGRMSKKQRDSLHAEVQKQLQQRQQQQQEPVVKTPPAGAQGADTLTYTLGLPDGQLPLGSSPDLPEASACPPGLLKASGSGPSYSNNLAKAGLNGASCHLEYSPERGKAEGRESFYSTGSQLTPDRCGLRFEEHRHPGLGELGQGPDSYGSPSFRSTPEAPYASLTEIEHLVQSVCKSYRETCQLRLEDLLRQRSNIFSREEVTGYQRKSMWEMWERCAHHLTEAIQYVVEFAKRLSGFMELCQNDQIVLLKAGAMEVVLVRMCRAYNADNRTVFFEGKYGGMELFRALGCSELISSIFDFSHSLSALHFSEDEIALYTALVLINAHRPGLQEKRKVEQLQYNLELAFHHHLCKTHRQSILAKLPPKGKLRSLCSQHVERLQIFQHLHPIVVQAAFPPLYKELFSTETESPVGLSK

| SMILES | Ki ([1]; Table 8) [µM] | IC50 [2, 3] [µM] | Ki ([1]; Table 9) [µM] | IC50 [2, 4] [µM] |
| --- | --- | --- | --- | --- |
| CCS(=O)(=O)c1ccc(CC(=O)Nc2nc3c(s2)CN(Cc2ccc(OC(F)F)cc2)[C@H]3C(C)C)nc1 [I-C2] | < 0.1 | < 0.1 | – | – |
| CCS(=O)(=O)c1ccc(CC(=O)Nc2nc3c(s2)CN(Cc2ccc(C(F)(F)F)cc2)[C@H]3C(C)C)nc1 [I-C4] | < 0.1 | < 0.1 | – | – |
| CCS(=O)(=O)c1ccc(CC(=O)Nc2nc3c(s2)CN(C[C@H]2CC[C@@](C)(OC)CC2)[C@H]3C(C)C)nc1 [I-C6] | < 0.1 | < 0.1 | – | – |
| CCS(=O)(=O)c1ccc(CC(=O)Nc2nc3c(s2)CN(Cc2ccc(-c4ccn(C)c(=O)c4)cc2)[C@H]3C(C)C)nc1 [I-C7] | < 0.1 | < 0.1 | – | – |
| CCS(=O)(=O)c1ccc(CC(=O)Nc2nc3c(s2)CN(C[C@H]2CC[C@@](OC)(C(F)(F)F)CC2)[C@H]3C(C)C)nc1 [I-C8] | < 0.1 | < 0.1 | – | – |
| CCS(=O)(=O)c1ccc(CC(=O)Nc2nc3c(s2)CN(Cc2ccc(-c4nnn(C)n4)cc2)[C@H]3C(C)C)nc1 [I-C9] | < 0.1 | < 0.1 | – | – |
| CCS(=O)(=O)c1ccc(CC(=O)Nc2nc3c(s2)CN(Cc2ccc(C#N)c(Cl)c2)[C@H]3C(C)C)nc1 [I-C10] | < 0.1 | < 0.1 | – | – |
| CCS(=O)(=O)c1ccc(CC(=O)Nc2nc3c(s2)CN(Cc2ccc(C#N)cc2)[C@H]3C(C)C)nc1 [I-C11] | < 0.1 | < 0.1 | – | – |
| CC(C)[C@H]1c2nc(NS(=O)(=O)c3ccc(CC(=O)O)cc3)sc2CN1Cc1ccc(Cl)cc1 [I-D1, (S)-2-(4-(N-(5-(4-chlorobenzyl)-4-isopropyl-5,6-dihydro-4H-pyrrolo[3,4-d]thiazol-2-yl)sulfamoyl)phenyl)acetic acid] | < 0.1 | > 1 | – | – |
| CC(C)[C@H]1c2nc(NS(=O)(=O)c3ccc(CC(=O)O)cc3)sc2CN1Cc1ccc(C#N)c(F)c1 [I-D2, (S)-2-(4-(N-(5-(4-cyano-3-fluorobenzyl)-4-isopropyl-5,6-dihydro-4H-pyrrolo[3,4-d]thiazol-2-yl)sulfamoyl)phenyl)acetic acid] | < 0.1 | > 1 | – | – |
| CC(C)[C@H]1c2nc(NC(=O)Cc3ccc(C#N)cc3)sc2CN1Cc1ccc(Cl)cc1 [I-E1, (S)—N-(5-(4-chlorobenzyl)-4-isopropyl-5,6-dihydro-4H-pyrrolo[3,4-d]thiazol-2-yl)-2-(4-cyanophenyl)acetamide] | < 0.1 | 0.1 to 1 | – | – |
| CCS(=O)(=O)c1ccc(CC(=O)Nc2nc3c(s2)CN(Cc2ccc(F)cc2)C3Cc2cccc(Br)c2)cc1 (stereo not shown) [I-F1, N-(4-(3-bromobenzyl)-5-(4-fluorobenzyl)-5,6-dihydro-4H-pyrrolo[3,4-d]thiazol-2-yl)-2-(4-(ethylsulfonyl)phenyl)acetamide] | < 0.1 | > 1 | – | – |
| CC(C)[C@H]1c2nc(NC(=O)Cc3ccc(S(=O)(=O)NC4CC4)cc3)sc2CN1Cc1ccc(Cl)cc1 [I-G1, (S)—N-(5-(4-chlorobenzyl)-4-isopropyl-5,6-dihydro-4H-pyrrolo[3,4-d]thiazol-2-yl)-2-(4-(N-cyclopropylsulfamoyl)phenyl)acetamide] | < 0.1 | < 0.1 | – | – |
| CC[C@H](C)[C@H]1c2nc(NC(=O)Cc3ccc(S(C)(=O)=O)cc3)sc2CN1Cc1ccc(Cl)cc1 [I-H1, N—((S)-4-((S)-sec-butyl)-5-(4-chlorobenzyl)-5,6-dihydro-4H-pyrrolo[3,4-d]thiazol-2-yl)-2-(4-(methylsulfonyl)phenyl)acetamide] | < 0.1 | < 0.1 | – | – |
| CC[C@H](C)C1c2nc(NC(=O)Cc3ccc(S(C)(=O)=O)cc3)sc2CN1Cc1ccc(C#N)c(F)c1 (stereo partly shown) [I-H2] | < 0.1 | < 0.1 | – | – |
| CC[C@H](C)C1c2nc(NC(=O)Cc3ccc(S(C)(=O)=O)cc3)sc2CN1Cc1ccc(Cl)cn1 (stereo partly shown) [I-H3] | < 0.1 | < 0.1 | – | – |

| SMILES | Ki ([1]; Table 8) [µM] | IC50 [2, 3] [µM] | Ki ([1]; Table 9) [µM] | IC50 [2, 4] [µM] |
| --- | --- | --- | --- | --- |
| CCS(=O)(=O)c1ccc(CC(=O)Nc2nc3c(s2)CN(Cc2ccc(C#N)cn2)[C@@]3(C)C(C)C)cc1 [I-I1, (S)—N-(5-((5-cyanopyridin-2-yl)methyl)-4-isopropyl-4-methyl-5,6-dihydro-4H-pyrrolo[3,4-d]thiazol-2-yl)-2-(4-(ethylsulfonyl)phenyl)acetamide] | < 0.1 | < 0.1 | – | – |
| CCS(=O)(=O)c1ccc(CNC(=O)c2nc3c(s2)CN(Cc2ccc(Cl)cc2)[C@H]3C(C)C)cc1 [I-J1, (S)-5-(4-chlorobenzyl)-N-(4-(ethylsulfonyl)benzyl)-4-isopropyl-5,6-dihydro-4H-pyrrolo[3,4-d]thiazole-2-carboxamide] | < 0.1 | < 0.1 | – | – |
| CCS(=O)(=O)c1ccc(CNC(=O)c2nc3c(s2)CN(Cc2ccc(C#N)cc2)[C@H]3C(C)C)cc1 [I-J2] | < 0.1 | < 0.1 | – | – |
| CCS(=O)(=O)c1ccc(CNC(=O)c2nc3c(s2)CN(Cc2ccc(-c4nnn(C)n4)cc2)[C@H]3C(C)C)cc1 [I-J3] | < 0.1 | < 0.1 | – | – |
| CCS(=O)(=O)c1ccc(CNC(=O)c2nc3c(s2)CN(Cc2ccc(C(F)(F)F)cn2)[C@H]3C(C)C)cc1 [I-J4] | < 0.1 | < 0.1 | – | – |
| CCS(=O)(=O)c1ccc(CNC(=O)c2nc3c(s2)CN(C[C@@H]2CN(C(=O)OC(C)(C)C)CCO2)[C@H]3C(C)C)cc1 [I-J5] | < 0.1 | < 0.1 | – | – |
| CCS(=O)(=O)c1ccc(CNC(=O)c2nc3c(s2)CN(Cc2ccc(OC(F)F)cc2)[C@H]3C(C)C)cc1 [I-J6] | < 0.1 | < 0.1 | – | – |
| CC(C)[C@H]1c2nc(C(=O)NCc3ccc(S(C)(=O)=O)cc3)sc2CN1Cc1ccc(Cl)cn1 [I-K1, (S)-5-((5-chloropyridin-2-yl)methyl)-4-isopropyl-N-(4-(methylsulfonyl)benzyl)-5,6-dihydro-4H-pyrrolo[3,4-d]thiazole-2-carboxamide] | < 0.1 | 0.1 to 1 | – | – |
| CC(C)[C@H]1c2nc(C(=O)NCc3ccc(S(C)(=O)=O)cc3)sc2CN1Cc1ccc(OC(F)F)cc1 [I-K2] | < 0.1 | < 0.1 | – | – |
| COC(=O)c1ccc(CN2Cc3sc(C(=O)NCc4ccc(S(C)(=O)=O)cc4)nc3[C@@H]2C(C)C)cc1 [I-K3] | < 0.1 | < 0.1 | – | – |
| CCS(=O)(=O)c1ccc(CNC(=O)c2nc3c(s2)CN(Cc2ccc(Cl)cc2)[C@H]3C(C)C)nc1 [I-L1, (S)-5-(4-chlorobenzyl)-N-((5-(ethylsulfonyl)pyridin-2-yl)methyl)-4-isopropyl-5,6-dihydro-4H-pyrrolo[3,4-d]thiazole-2-carboxamide] | < 0.1 | < 0.1 | – | – |
| CC(C)[C@H]1c2nc(NC(=O)Cc3ccc(S(C)(=O)=O)cc3F)sc2CN1Cc1ccc(C#N)cc1 [I-M1, (S)—N-(5-(4-cyanobenzyl)-4-isopropyl-5,6-dihydro-4H-pyrrolo[3,4-d]thiazol-2-yl)-2-(2-fluoro-4-(methylsulfonyl)phenyl)acetamide] | < 0.1 | < 0.1 | – | – |
| CCS(=O)(=O)c1ccc(CC(=O)Nc2nc3c(s2)CN(Cc2ccc(C#N)cc2)[C@H]3C(C)C)nc1 [drawing 230] | – | – | < 0.1 | < 0.1 |
| CCS(=O)(=O)c1ccc(CC(=O)Nc2nc3c(s2)CN(Cc2ccc(C#N)cn2)[C@@]3(C)C(C)C)cc1 [drawing 270] | – | – | < 0.1 | < 0.1 |
| CC(C)[C@H]1c2nc(C(=O)NCc3ccc(S(C)(=O)=O)cc3)sc2CN1Cc1ccc(Cl)cn1 [drawing 378] | – | – | < 0.1 | 0.1 to 1 |
| CC(C)[C@H]1c2nc(NS(=O)(=O)c3ccc(CC(=O)O)cc3)sc2CN1Cc1ccc(C#N)c(F)c1 [drawing 411] | – | – | < 0.1 | > 1 |
